Reference: patent US12173276B2 (Alliance for Sustainable Energy, LLC, priority 2021, dated 2024)

Test system: P. renovo
Assay: plating assay to determine phosphorus source utilization capacity
Type: cell-based, Picochlorum renovo
Conditions: wild-type P. renovo, agar plates, 0.313 mM phosphite addition, 5-day outgrowth
Method: FIG. 1 depicts a plating assay to determine phosphorus source utilization capacity in P. renovo.
Microalgae were cultivated under constant illumination at […] of light, 2% CO2, and constant temperature of 33° C. These conditions were utilized to generate seed cultures for transformation and outgrowth of transformants to generate clonal isolates on agar plates. Media was comprised of a modified f/2 recipe, as described previously. For phosphorus source utilization analyses, agar plates were prepared as described previously, utilizing 8.75 g/L salinity, via dilution of seawater. […] Approximately 4.75×10^8 early log phase cells were plated and incubated under the above conditions; plates were imaged after 5 days of growth.

## O=[PH](O)O [phosphite, Sodium phosphite dibasic pentahydrate]
  bleaching compared to control with no added phosphorus source: noticeable bleaching occurred
  growth with phosphite as the sole phosphorus source: no growth was observed
